Assay results from US20210047304A1, “Bromodomain Inhibitors” (AbbVie Inc., priority 2016, published 2021).

These molecules were tested against BRD4 (BDI_K57-E168) (Homo sapiens, UniProt O60885) (assay: TR-FRET bromodomain binding assay, BRD4 BDI).
Description: A time-resolved fluorescence resonance energy transfer (TR-FRET) assay was used to determine the affinities of compounds of the Examples listed in Table 1 for each bromodomain of BRD4. […] An Alexa647-labeled BET-inhibitor was used as the fluorescent probe in the assay.
(§1) Compound dilution series were prepared in DMSO via an approximately 3-fold serial dilution. Compound dilutions were added directly into white, low-volume assay plates (Perkin Elmer Proxiplate 384 Plus #6008280) using a Labcyte Echo in conjunction with Labcyte Access and Thermo Multidrop CombinL robotics. Compounds were then suspended in eight microliters (μL) of assay buffer (20 mM Sodium Phosphate, pH 6.0, 50 mM NaCl, 1 mM Ethylenediaminetetraacetic acid disodium salt dihydrate, 0.01% Triton X-100, 1 mM DL-Dithiothreitol) containing His-tagged bromodomain, Europium-conjugated anti-His antibody (Invitrogen PV5596) and Alexa-647-conjugated probe.
After a one-hour equilibration at room temperature, TR-FRET ratios were determined using an Envision multilabel plate reader (Ex 340, Em 495/520).
TR-FRET data were normalized to the means of 24 no-compound controls (“high”) and 8 controls containing 1 μM un-labeled probe (“low”). Percent inhibition was plotted as a function of compound concentration and the data were fit with the 4 parameter logistic equation to obtain IC50s. Inhibition constants (Ki) were calculated from the IC50s, probe Kd and probe concentration.
Compound dilution series for Compounds A-E were prepared in DMSO via an approximately 3-fold serial dilution from 0.47 mM to 7.8 nM.
as §1, with “Compound” for “Compound dilution series were prepared in DMSO via an approximately 3-fold serial dilution. Compound”
TR-FRET data were normalized to the means of 24 no-compound controls (“high”) and 8 controls containing 1 μM un-labeled probe (“low”). Percent inhibition was plotted as a function of compound concentration and the data were fit with the 4 parameter logistic equation to obtain IC50s. Inhibition constants (Ki) were calculated from the IC50s, probe Kd and probe concentration. Typical Z′ values were between 0.65 and 0.75. The minimum significant ratio was determined to evaluate assay reproducibility (Eastwood et al., (2006) J Biomol Screen, 11: 253-261). The MSR was determined to be 2.03 for BDI and 1.93 for BDII, and a moving MSR (last six run MSR overtime) for both BDI and BDII was typically <3.

Row | Structure (SMILES) | Ki [µM]
1 | Cc1cc(F)cc(C)c1Oc1ccc(C(C)(C)O)cc1-c1cn(C)c(=O)cc1O[C@H]1CC[C@H](C#N)CC1 [Example 69, trans-4-({5-[2-(4-fluoro-2,6-dimethylphenoxy)-5-(2-hydroxypropan-2-yl)phenyl]-1-methyl-2-oxo-1,2-dihydropyridin-4-yl}oxy)cyclohexane-1-carbonitrile] | 7.25
2 | CC(=O)NC[C@@H]1CC[C@H](Oc2cc(=O)n(C)cc2-c2cc(C(C)(C)O)ccc2Oc2c(C)cc(F)cc2C)[C@H]1C [Example 22, N-{[(1R,2S,3S)-3-({5-[2-(4-fluoro-2,6-dimethylphenoxy)-5-(2-hydroxypropan-2-yl)phenyl]-1-methyl-2-oxo-1,2-dihydropyridin-4-yl}oxy)-2-methylcyclopentyl]methyl}acetamide] | 2.87
3 | Cc1cc(F)cc(C)c1Oc1ccc(C(C)(C)O)cc1-c1cn(C)c(=O)cc1O[C@H]1CC[C@H](C(C)(C)O)CC1 [Example 67, 5-[2-(4-fluoro-2,6-dimethylphenoxy)-5-(2-hydroxypropan-2-yl)phenyl]-4-{[trans-4-(2-hydroxypropan-2-yl)cyclohexyl]oxy}-1-methylpyridin-2(1H)-one] | 2.83
4 | COCC(C)(C)C(=O)N[C@H]1CC[C@H](Oc2cc(=O)n(C)cc2-c2cc(C(C)(C)O)ccc2Oc2c(C)cc(F)cc2C)CC1 [Example 71, N-[trans-4-({5-[2-(4-fluoro-2,6-dimethylphenoxy)-5-(2-hydroxypropan-2-yl)phenyl]-1-methyl-2-oxo-1,2-dihydropyridin-4-yl}oxy)cyclohexyl]-3-methoxy-2,2-dimethylpropanamide] | 5.08
5 | C=CCCCC(=O)N[C@H]1CC[C@H](Oc2cc(=O)n(C)cc2-c2cc(C(C)(C)O)ccc2Oc2c(C)cc(F)cc2C)CC1 [Example 36, N-[trans-4-({5-[2-(4-fluoro-2,6-dimethylphenoxy)-5-(2-hydroxypropan-2-yl)phenyl]-1-methyl-2-oxo-1,2-dihydropyridin-4-yl}oxy)cyclohexyl]hex-5-enamide] | 5.79
6 | Cc1cc(F)cc(C)c1Oc1ccc(C(C)(C)O)cc1-c1cn(C)c(=O)cc1O[C@H]1CC[C@H](N2CCCS2(=O)=O)CC1 [Example 52, 2-[trans-4-({5-[2-(4-fluoro-2,6-dimethylphenoxy)-5-(2-hydroxypropan-2-yl)phenyl]-1-methyl-2-oxo-1,2-dihydropyridin-4-yl}oxy)cyclohexyl]-1lambda^6,2-thiazolidine-1,1-dione] | 3.48
7 | Cc1cc(F)cc(C)c1Oc1ccc(C(C)(C)O)cc1-c1cn(C)c(=O)cc1O[C@H]1CC[C@H](NC(=O)C(C)(C)CCO)CC1 [Example 47, N-[trans-4-({5-[2-(4-fluoro-2,6-dimethylphenoxy)-5-(2-hydroxypropan-2-yl)phenyl]-1-methyl-2-oxo-1,2-dihydropyridin-4-yl}oxy)cyclohexyl]-4-hydroxy-2,2-dimethylbutanamide] | 4.02
8 | COCCN1CC(=O)N([C@H]2CC[C@H](Oc3cc(=O)n(C)cc3-c3cc(C(C)(C)O)ccc3Oc3c(C)cc(F)cc3C)CC2)C1=O [Example 135, 3-[trans-4-({5-[2-(4-fluoro-2,6-dimethylphenoxy)-5-(2-hydroxypropan-2-yl)phenyl]-1-methyl-2-oxo-1,2-dihydropyridin-4-yl}oxy)cyclohexyl]-1-(2-methoxyethyl)imidazolidine-2,4-dione] | 3.68
9 | CNC(=O)[C@H]1CC[C@H](Oc2cc(=O)n(C)cc2-c2cc(C(C)(C)O)ccc2Oc2c(C)cc(F)cc2C)CC1 [Example 101, trans-4-({5-[2-(4-fluoro-2,6-dimethylphenoxy)-5-(2-hydroxypropan-2-yl)phenyl]-1-methyl-2-oxo-1,2-dihydropyridin-4-yl}oxy)-N-methylcyclohexane-1-carboxamide] | 3.53
10 | Cc1cc(F)cc(C)c1Oc1ncc(C(C)(C)O)cc1-c1cn(C)c(=O)cc1O[C@H]1CC[C@H](N2CCCC2=O)CC1 [Example 60, 2′-(4-fluoro-2,6-dimethylphenoxy)-5′-(2-hydroxypropan-2-yl)-1-methyl-4-{[trans-4-(2-oxopyrrolidin-1-yl)cyclohexyl]oxy}[3,3′-bipyridin]-6(1H)-one] | 4.66

Molecules with a lower Ki, results first:

Row | Ki [µM] | Structure (SMILES)
11 | 2.7 | Cc1cc(F)cc(C)c1Oc1ccc(C(C)(C)O)cc1-c1cn(C)c(=O)cc1O[C@H]1C[C@@H](CNC(=O)OC(C)(C)C)C1 [Example 8, tert-butyl {[cis-3-({5-[2-(4-fluoro-2,6-dimethylphenoxy)-5-(2-hydroxypropan-2-yl)phenyl]-1-methyl-2-oxo-1,2-dihydropyridin-4-yl}oxy)cyclobutyl]methyl}carbamate]
12 | 2.41 | Cc1cc(F)cc(C)c1Oc1ccc(C(C)(C)O)cc1-c1cn(C)c(=O)cc1O[C@H]1CC[C@H](N2CCCNC2=O)CC1 [Example 31, 1-[trans-4-({5-[2-(4-fluoro-2,6-dimethylphenoxy)-5-(2-hydroxypropan-2-yl)phenyl]-1-methyl-2-oxo-1,2-dihydropyridin-4-yl}oxy)cyclohexyl]tetrahydropyrimidin-2(1H)-one]
13 | 2.33 | CC(=O)NC1CC2(C1)CC(Nc1cc(=O)n(C)cc1-c1cc(C(C)(C)O)ccc1Oc1c(C)cccc1C)C2 (stereo not drawn) [Example 10, N-[6-({5-[2-(2,6-dimethylphenoxy)-5-(2-hydroxypropan-2-yl)phenyl]-1-methyl-2-oxo-1,2-dihydropyridin-4-yl}amino)spiro[3.3]heptan-2-yl]acetamide]
14 | 1.9 | Cc1cccc(C)c1Oc1ccc(C(C)(C)O)cc1-c1cn(C)c(=O)cc1O[C@H]1CC[C@H](N2CCCC2=O)CC1 [Example 27, 5-[2-(2,6-dimethylphenoxy)-5-(2-hydroxypropan-2-yl)phenyl]-1-methyl-4-{[trans-4-(2-oxopyrrolidin-1-yl)cyclohexyl]oxy}pyridin-2(1H)-one]
15 | 1.71 | CC(=O)N[C@H]1CC[C@H](Oc2cc(=O)n(C)cc2-c2cc(C(C)(C)O)cnc2Oc2c(C)cc(F)cc2C)CC1 [Example 1, N-(trans-4-{[2′-(4-fluoro-2,6-dimethylphenoxy)-5′-(2-hydroxypropan-2-yl)-1-methyl-6-oxo[1,6-dihydro[3,3′-bipyridine]]-4-yl]oxy}cyclohexyl)acetamide]
16 | 1.55 | CC(=O)N1CCC(Nc2cc(=O)n(C)cc2-c2cc(C(C)(C)O)ccc2Oc2c(C)cccc2C)C1 (stereo not drawn) [Example 14, 4-[(1-acetylpyrrolidin-3-yl)amino]-5-[2-(2,6-dimethylphenoxy)-5-(2-hydroxypropan-2-yl)phenyl]-1-methylpyridin-2(1H)-one]
17 | 1.19 | Cc1cc(F)cc(C)c1Oc1ccc(C(C)(C)O)cc1-c1cn(C)c(=O)cc1O[C@H]1CC[C@H](NC(=O)C23CC(N)(C2)C3)CC1 (relative stereo) [Example 93, 3-amino-N-[trans-4-({5-[2-(4-fluoro-2,6-dimethylphenoxy)-5-(2-hydroxypropan-2-yl)phenyl]-1-methyl-2-oxo-1,2-dihydropyridin-4-yl}oxy)cyclohexyl]bicyclo[1.1.1]pentane-1-carboxamide]
18 | 0.645 | Cc1cc(F)cc(C)c1Oc1ccc(C(C)(C)O)cc1-c1cn(C)c(=O)cc1O[C@H]1CC[C@H](NC(=O)C(C)(C)N)CC1 [Example 139, N-[trans-4-({5-[2-(4-fluoro-2,6-dimethylphenoxy)-5-(2-hydroxypropan-2-yl)phenyl]-1-methyl-2-oxo-1,2-dihydropyridin-4-yl}oxy)cyclohexyl]-2-methylalaninamide]
